Paper PMC7764601 (Molecules, 2020)
Like-named read-outs stand apart in the source and are kept apart here. Marks after values point to notes of the source that are not given here.

What was measured:
[1] = tested on: mice; experiment: “Hot plate” test in mice; type: in vivo; conditions: for Time of Reaction to Pain Stimulus (s) ± SEM: hot plate, mice
Protocol: (§1) The experiments were carried out on male albino Swiss mice (body weight 18–26 g). All of the animals were housed at constant humidity (60%) and temperature (25 °C) and kept on a 12 h light/dark cycle. Animals were fed a standard pellet diet with free access to tap water. All procedures were conducted according to Animal Care and Use Committee guidelines, and approved by the Ethical Committee of Jagiellonian University, Kraków.
(§2) Control and experimental groups consisted of 6–8 animals each. The investigated compounds were administered intraperitoneally as a suspension in 0.5% methylcellulose in a constant volume of 10 mL/kg.
(§3) The statistical significance was calculated using a Student’s t-test. The ED50 values and their confidence limits were calculated according to the method of Litchfield and Wilcoxon.
(§4) Pain reactivity was measured in two tests: “hot plate” test (according to the method of Eddy and Leimbach) and “writhing” test in mice (according to Hendershot and Forsaith).
Animals were placed individually on the metal plate, heated to 55 ± 1 °C. The latency time (s) to the pain reaction (licking of the hind paws or jumping) was recorded by a stop-watch. A cutoff time of 45 s was used to prevent tissue damage.

[2] = tested on: mice; experiment: “Writhing” test in mice (phenylbenzoquinone); type: in vivo; conditions: for Mean no. of writhing ± SEM: i.p.
Protocol: as §1, §2, §3, §4
Then, after 25 min, the irritant (phenylbenzoquinone, 0.02% solution, ethanol-water, 5:95) was also administered intraperitoneally in a constant volume of 0.25 mL. Five min after the application of the irritant,a 10 min long period of observation started, in which the number of writhing episodes was counted.
The analgesic effect of individual doses was expressed in percent:(1) % Analgesic effect=100−∑ of writing incidents in experimental group/∑ of writhing incidents in control group×100

[3] = tested on: mice; set-up: method as in PMID 11234340, PMID 12484538, PMID 15652370; conditions: series 1, cited from earlier work
[4] = tested on: mice; conditions: compounds obtained previously (series 1 and 2); cited from earlier work
[5] = tested on: mice; set-up: method as in PMID 11234340, PMID 12484538, PMID 15652370; conditions: cited from earlier work; for % Inh. of locomotor activity: series 1; for ED50, influence on the locomotor activity: imides described previously (series 1)
[6] = Mus musculus, ip, 0.5 h, read-out: Prolonged Time (%)

SMILES: CC(=O)Oc1ccccc1C(=O)O [ASA, Acetylicacid, reference compound]
- change in vivo at 100 mg/kg [1, 6]: 11.7%
- change in vivo at 200 mg/kg [1, 6]: 35.2%
- change in vivo at 400 mg/kg [1, 6]: 116%
- ED50 ([1]; Mus musculus, read-out: ED50, hot plate test): 267 mg/kg
- Time of Reaction to Pain Stimulus (s) ± SEM ([1]; dose 100 mg/kg): 16.2 ± 4.9 s
- Time of Reaction to Pain Stimulus (s) ± SEM ([1]; dose 200 mg/kg): 19.6 ± 4.1 s
- Time of Reaction to Pain Stimulus (s) ± SEM ([1]; dose 400 mg/kg): 31.3 ± 1.2 s
- ED50 ([2]; Mus musculus, ip, confidence limits in parentheses, read-out: ED50 (mg/kg) ± SEM, writhing test): 39.1 mg/kg
- Mean no. of writhing ± SEM ([2]; dose 30 mg/kg): 11.2 ± 2.1
- Mean no. of writhing ± SEM ([2]; dose 50 mg/kg): 8.5 ± 1.3
- Mean no. of writhing ± SEM ([2]; dose 100 mg/kg): 3.2 ± 1.1

SMILES: COc1nc(C)cc2c1C(=O)N(CCCN1CCN(c3ccccc3)CC1)C2=O [Compound 1H]
- Thiopental Anesthesia % Prolong. ([3]; dose 25 mg/kg): 118%
- Thiopental Anesthesia % Prolong. ([3]; dose 50 mg/kg): 194%
- ED50, writhing test [4]: 1.03 mg/kg
- % Inh. of locomotor activity ([5]; dose 12.5 mg/kg): 47.67%
- % Inh. of locomotor activity ([5]; dose 25 mg/kg): 53.84%
- % Inh. of locomotor activity ([5]; dose 50 mg/kg): 66.55%
- ED50, influence on the locomotor activity [5]: 15.17 mg/kg

SMILES: COc1nc(C)cc2c1C(=O)N(CN1CCN(c3ccccc3)CC1)C2=O [Compound 1K]
- Thiopental Anesthesia % Prolong. ([3]; dose 2.25 mg/kg): 134.1%
- Thiopental Anesthesia % Prolong. ([3]; dose 4.5 mg/kg): 199.1%
- ED50, writhing test [4]: 2.55 mg/kg
- % Inh. of locomotor activity ([5]; dose 2.25 mg/kg): 49.23%
- % Inh. of locomotor activity ([5]; dose 4.5 mg/kg): 61.77%
- ED50, influence on the locomotor activity [5]: 2.28 mg/kg

SMILES: COc1ccccc1N1CCN(CN2C(=O)c3cc(C)nc(OC)c3C2=O)CC1 [Compound 1L]
- Thiopental Anesthesia % Prolong. ([3]; dose 12.5 mg/kg): 111.6%
- Thiopental Anesthesia % Prolong. ([3]; dose 25 mg/kg): 133.2%
- Thiopental Anesthesia % Prolong. ([3]; dose 50 mg/kg): 184.3%
- ED50, writhing test [4]: 6.53 mg/kg
- % Inh. of locomotor activity ([5]; dose 12.5 mg/kg): 37.81%
- % Inh. of locomotor activity ([5]; dose 25 mg/kg): 40.84%
- % Inh. of locomotor activity ([5]; dose 50 mg/kg): 68.25%
- ED50, influence on the locomotor activity [5]: 25.2 mg/kg

SMILES: COc1nc(C)cc2c1C(=O)N(CCCCN1CCc3ccccc3C1)C2=O [Compound 1N]
- Thiopental Anesthesia % Prolong. ([3]; dose 23 mg/kg): 100.0%
- Thiopental Anesthesia % Prolong. ([3]; dose 46 mg/kg): 286.5%
- ED50, writhing test [4]: 0.72 mg/kg
- % Inh. of locomotor activity ([5]; dose 46 mg/kg): 87.48 * %

SMILES: COc1nc(C)cc2c1C(=O)N(CCCCN1CCN(c3ccccc3)CC1)C2=O [Compound 1P]
- Thiopental Anesthesia % Prolong. ([3]; dose 50 mg/kg): 140.25%
- Thiopental Anesthesia % Prolong. ([3]; dose 100 mg/kg): 242.13%
- ED50, writhing test [4]: 4.5 mg/kg
- % Inh. of locomotor activity ([5]; dose 50 mg/kg): 67.14%
- % Inh. of locomotor activity ([5]; dose 100 mg/kg): 86.10%
